Assay results from the NIST ThermoML archive (doi:10.1016/j.fluid.2014.04.019).

Test: xn = mol fraction of the nth substance listed
Details: 101 kPa, Liquid

OCCOCCO [diethylene glycol] + CN(C)C=O
Details | kinematic viscosity, 308.15 K [m2/s] | kinematic viscosity, 313.15 K [m2/s] | kinematic viscosity, 318.15 K [m2/s] | mass density, 308.15 K [kg/m3] | mass density, 313.15 K [kg/m3] | mass density, 318.15 K [kg/m3]
x2 = 0 | – | 1.45e-05 | 1.12e-05 | – | 1103 | 1099.3
x2 = 0.0714 | – | 1.07e-05 | 8.43e-06 | – | 1093.4 | 1089.5
x2 = 0.1393 | – | 8.49e-06 | 6.68e-06 | – | 1083.9 | 1079.8
x2 = 0.2041 | – | 7.39e-06 | 5.77e-06 | – | 1074.6 | 1070.3
x2 = 0.2683 | – | 6.18e-06 | 4.88e-06 | – | 1065.1 | 1060.7
x2 = 0.3266 | – | 5.2e-06 | 4.16e-06 | – | 1056.2 | 1051.7
x2 = 0.3834 | – | 4.4e-06 | 3.54e-06 | – | 1047.3 | 1042.7
x2 = 0.4384 | – | 3.74e-06 | 3.06e-06 | – | 1038.5 | 1033.9
x2 = 0.4917 | – | 3.2e-06 | 2.64e-06 | – | 1029.7 | 1024.9
x2 = 0.5429 | – | 2.75e-06 | 2.29e-06 | – | 1021 | 1016.2
x2 = 0.5865 | 2.53e-06 | 2.41e-06 | 2.03e-06 | 1017.3 | 1013.4 | 1008.6
x2 = 0.6394 | 2.16e-06 | 2.07e-06 | 1.76e-06 | 1007.9 | 1004 | 999.1
x2 = 0.6819 | 1.89e-06 | 1.82e-06 | 1.56e-06 | 1000.1 | 996.2 | 991.2
x2 = 0.7294 | 1.64e-06 | 1.59e-06 | 1.37e-06 | 991.1 | 987.1 | 982.1
x2 = 0.7721 | 1.44e-06 | 1.39e-06 | 1.22e-06 | 982.8 | 978.6 | 973.6
x2 = 0.813 | 1.28e-06 | 1.23e-06 | 1.09e-06 | 974.5 | 970.3 | 965.2
x2 = 0.8531 | 1.14e-06 | 1.1e-06 | 9.94e-07 | 966.3 | 962.1 | 956.9
x2 = 0.891 | 1.03e-06 | 9.92e-07 | 8.99e-07 | 958.3 | 954.1 | 948.9
x2 = 0.9288 | 9.23e-07 | 8.88e-07 | 8.16e-07 | 950 | 945.8 | 940.7
x2 = 0.9648 | 8.37e-07 | 8.06e-07 | 7.44e-07 | 942.3 | 937.9 | 932.6
